The values below come from PubChem BioAssay (NCI).

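These data come from cells grown in 96-well plates and exposed to compound for 48 hours at five concentrations. At the GI50, growth is halved. At the TGI there is no net growth.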

Test systems include M14 melanoma; SK-MEL-2 melanoma; NCI-H522 lung; HOP-62 NSCLC; A498 renal; OVCAR-8 ovarian; HT29 colon; U251 CNS; NCI-H23 lung; RPMI-8226 leukemia.
Assay in all cases: inhibition of tumour cell growth, NCI panel, 48 h

`Cc1cccc2c3c(sc12)C(c1ccc(Cl)cc1)C(C#N)=C(/N=C/c1ccc(Cl)cc1)O3` (stereo not given): the GI50 was 0.308 µM with M14 melanoma; 2.86 µM in the assay on SK-MEL-2 melanoma; 0.304 µM with NCI-H522 lung; 0.573 µM in the assay on HOP-62 NSCLC; 0.0748 µM in the assay with A498 renal; 0.46 µM in the assay with OVCAR-8 ovarian. In addition, the GI50 was 0.388 µM in the assay on HT29 colon, 0.443 µM in the assay with U251 CNS, 0.446 µM with NCI-H23 lung and 0.408 µM in the assay on RPMI-8226 leukemia. The TGI with M14 melanoma is over 52.6 µM; with SK-MEL-2 melanoma, 29.9 µM; with NCI-H522 lung, 3.12 µM; in the assay with HOP-62 NSCLC it was 36.5 µM; with A498 renal, 0.953 µM; with OVCAR-8 ovarian, over 100 µM. Besides, the TGI with HT29 colon is over 52 µM; in the assay on U251 CNS, 21.3 µM; with NCI-H23 lung it was 14.2 µM; in the assay on RPMI-8226 leukemia it was over 28.3 µM.
In the case of `O=C(Nc1ccccc1Cl)c1cnc2ccc(C3CCNCC3)cn12`, the GI50 with M14 melanoma was 15.2 µM; in the assay on SK-MEL-2 melanoma, 42.3 µM; in the assay on NCI-H522 lung it was 1.06 µM; in the assay with HOP-62 NSCLC, 16.8 µM; in the assay with A498 renal it was 1.49 µM; with OVCAR-8 ovarian it was 13.5 µM. Also, the GI50 in the assay on HT29 colon was 1.77 µM; in the assay on U251 CNS, 51.7 µM; in the assay with NCI-H23 lung it was 74.5 µM; with RPMI-8226 leukemia it was over 69 µM. Moreover, the TGI was 33.3 µM in the assay on M14 melanoma; over 94 µM in the assay with SK-MEL-2 melanoma; over 100 µM with NCI-H522 lung; over 100 µM in the assay on HOP-62 NSCLC; over 45.5 µM in the assay on A498 renal; over 100 µM in the assay on OVCAR-8 ovarian. Besides, the TGI is 18.6 µM with HT29 colon, over 100 µM with U251 CNS, over 100 µM with NCI-H23 lung and over 100 µM in the assay with RPMI-8226 leukemia.
Turning to `C=C1C(=O)O[C@H]2[C@H]1CC/C(COC(=O)NCCc1ccc(OC)cc1)=C\CC[C@@]1(C)O[C@@H]21`, the GI50 is 1.98 µM in the assay on M14 melanoma; 8.97 µM in the assay with SK-MEL-2 melanoma; 1.82 µM in the assay on NCI-H522 lung; 12.2 µM in the assay on HOP-62 NSCLC; 4.52 µM in the assay with A498 renal; 2.77 µM in the assay on OVCAR-8 ovarian. In addition, the GI50 in the assay on HT29 colon is 2.15 µM; in the assay on U251 CNS, 11.1 µM; in the assay on NCI-H23 lung, 4.34 µM; with RPMI-8226 leukemia, 2.85 µM. Besides, the TGI in the assay with M14 melanoma amounted to 4.78 µM; with SK-MEL-2 melanoma, 21.9 µM; in the assay on NCI-H522 lung, 3.93 µM; in the assay on HOP-62 NSCLC it was 27.1 µM; with A498 renal, 18.1 µM; in the assay on OVCAR-8 ovarian, 7.7 µM. Moreover, the TGI in the assay on HT29 colon amounted to 4.71 µM; with U251 CNS it was 23.5 µM; with NCI-H23 lung, 18.6 µM; with RPMI-8226 leukemia, 7.59 µM.
As for `CC1(C)CCSC(/C=C/c2ccccc2)=N1`, the TGI with M14 melanoma was 27 µM; with SK-MEL-2 melanoma it was 28.8 µM; in the assay on NCI-H522 lung, 39.8 µM; with HOP-62 NSCLC, 32.8 µM; in the assay on A498 renal, 36.4 µM; with OVCAR-8 ovarian, 29.8 µM. Moreover, the TGI in the assay with HT29 colon is 33.1 µM; in the assay on U251 CNS it was 34.3 µM; with NCI-H23 lung, 33.9 µM; in the assay with RPMI-8226 leukemia, 62.6 µM.
For the compound `FC(F)(F)c1ccc2c(c1)N(CCCN1CCN(C3CC3)CC1)c1ccccc1S2`, the GI50 with M14 melanoma is 15.1 µM; in the assay on SK-MEL-2 melanoma, 18.9 µM; in the assay on NCI-H522 lung it was 11.5 µM; in the assay on HOP-62 NSCLC, 14.4 µM; in the assay with A498 renal, 11 µM; in the assay with OVCAR-8 ovarian, 13 µM. Moreover, the GI50 with HT29 colon is 3.48 µM; in the assay with U251 CNS it was 4.94 µM; in the assay with NCI-H23 lung, 7.42 µM; with RPMI-8226 leukemia it was 6.18 µM. The TGI in the assay with M14 melanoma was 30.7 µM; in the assay on SK-MEL-2 melanoma it was 34.9 µM; in the assay with NCI-H522 lung it was 25.8 µM; in the assay on HOP-62 NSCLC it was 27.8 µM; with A498 renal, 23.3 µM; in the assay with OVCAR-8 ovarian, 26.8 µM. Moreover, the TGI with HT29 colon was 13.8 µM; in the assay with U251 CNS, 18 µM; in the assay on NCI-H23 lung, 23.1 µM; in the assay on RPMI-8226 leukemia, 25.8 µM.
As to `Cc1ccccc1C(C#N)/C(=N/NC(=O)c1cc2ccccc2cc1O)C(=O)Nc1cccc(Cl)c1` (stereo not given), the TGI in the assay on M14 melanoma was over 100 µM; in the assay on SK-MEL-2 melanoma it was 76 µM; in the assay on NCI-H522 lung, 78.3 µM; in the assay with HOP-62 NSCLC it was over 100 µM; in the assay on A498 renal it was over 100 µM; in the assay on OVCAR-8 ovarian, over 100 µM. The TGI in the assay with HT29 colon was over 100 µM; with U251 CNS, over 100 µM; in the assay with NCI-H23 lung, 51.2 µM; in the assay with RPMI-8226 leukemia it was over 100 µM.
For the compound `COC(=O)Nc1ccc2ccc3c(NC(=O)OC)ccc4ccc1c2c43` (tested in a mixture with another compound), the GI50 with M14 melanoma was 3.93 µM; in the assay with SK-MEL-2 melanoma, 25.6 µM; in the assay with NCI-H522 lung, 11 µM; with HOP-62 NSCLC, 7.91 µM; with A498 renal it was 8.26 µM; in the assay on OVCAR-8 ovarian, 14.3 µM. Also, the GI50 in the assay on HT29 colon is 4.31 µM; with U251 CNS, 12 µM; in the assay with NCI-H23 lung it was 11.5 µM; in the assay on RPMI-8226 leukemia, 8.22 µM. In addition, the TGI in the assay on M14 melanoma is over 50 µM; with SK-MEL-2 melanoma it was over 50 µM; in the assay with NCI-H522 lung it was over 50 µM; in the assay with HOP-62 NSCLC, 25.4 µM; with A498 renal, over 50 µM; in the assay with OVCAR-8 ovarian, over 50 µM. Moreover, the TGI in the assay with HT29 colon, in the assay with U251 CNS, in the assay with NCI-H23 lung and in the assay on RPMI-8226 leukemia was over 50 µM in each case.
Turning to `C[C@]12CC[C@H]3[C@@H](CCC4=CC(=O)CC[C@@H]43)[C@@H]1CC[C@@H]2OC1(O)C(=O)c2ccccc2C1=O`, the TGI in the assay with M14 melanoma is over 100 µM; in the assay with SK-MEL-2 melanoma it was over 100 µM; in the assay with NCI-H522 lung, 35.9 µM; in the assay with HOP-62 NSCLC it was over 100 µM; with A498 renal it was over 100 µM; in the assay with OVCAR-8 ovarian, over 100 µM. Moreover, the TGI is over 100 µM in the assay with HT29 colon, over 100 µM in the assay with U251 CNS, 62.5 µM in the assay on NCI-H23 lung and 80 µM in the assay on RPMI-8226 leukemia.
